{
  "source": "ChEMBL document CHEMBL1201862",
  "about": "“PubChem BioAssay data set” (2004)",
  "test_in_all_cases": "NCI tumour cell line growth inhibition, 48 h",
  "key": {"786-0": {"system": "786-0"}, "A549": {"system": "A549"}, "ACHN": {"system": "ACHN"}, "CAKI-1": {"system": "CAKI-1"}, "CCRF-CEM": {"system": "CCRF-CEM"}, "COLO 205": {"system": "COLO 205"}, "DLD-1": {"system": "DLD-1"}, "EKVX": {"system": "EKVX"}, "HCC 2998": {"system": "HCC 2998"}, "HCT-116": {"system": "HCT-116"}, "HCT-15": {"system": "HCT-15"}, "HL-60": {"system": "HL-60"}, "HOP-18": {"system": "HOP-18"}, "HOP-62": {"system": "HOP-62"}, "HT-29": {"system": "HT-29"}, "IGROV-1": {"system": "IGROV-1"}, "K562": {"system": "K562"}, "KM-20L2": {"system": "KM-20L2"}, "KM12": {"system": "KM12"}, "LOX IMVI": {"system": "LOX IMVI"}, "LXFL 529": {"system": "LXFL 529"}, "M14": {"system": "M14"}, "M19-MEL": {"system": "M19-MEL"}, "MOLT-4": {"system": "MOLT-4"}, "Malme-3M": {"system": "Malme-3M"}, "NCI-H226": {"system": "NCI-H226"}, "NCI-H23": {"system": "NCI-H23"}, "NCI-H460": {"system": "NCI-H460"}, "NCI-H522": {"system": "NCI-H522"}, "OVCAR-3": {"system": "OVCAR-3"}, "OVCAR-4": {"system": "OVCAR-4"}, "OVCAR-5": {"system": "OVCAR-5"}, "OVCAR-8": {"system": "OVCAR-8"}, "RPMI-8226": {"system": "RPMI-8226"}, "RXF 393": {"system": "RXF 393"}, "SF-268": {"system": "SF-268"}, "SF-295": {"system": "SF-295"}, "SF-539": {"system": "SF-539"}, "SK-MEL-28": {"system": "SK-MEL-28"}, "SK-MEL-2": {"system": "SK-MEL-2"}, "SK-MEL-5": {"system": "SK-MEL-5"}, "SN12C": {"system": "SN12C"}, "SNB-19": {"system": "SNB-19"}, "SNB-78": {"system": "SNB-78"}, "SR": {"system": "SR"}, "SW-620": {"system": "SW-620"}, "U-251": {"system": "U-251"}, "UACC-257": {"system": "UACC-257"}, "UACC-62": {"system": "UACC-62"}, "UO-31": {"system": "UO-31"}, "XF498": {"system": "XF498"}},
  "note": "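1) Cells in 96-well plates. 2) Compound, 48 h, 5 concentrations. 3) Linear interpolation between surrounding doses. 4) Unreached endpoint = highest concentration. At the GI50, growth is halved.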 Active and inactive are the calls of the source. Rule as the data show it: active = GI50 up to about 1.1 µM and inactive = higher.",
  "data": [
    {"smiles": "CCOC(=O)/C(C(=O)c1ccccc1)=C1/NCCN1C", "values": [
      {"measurement": "GI50", "setting": "786-0", "value": "> 100 µM (inactive)"},
      {"measurement": "GI50", "setting": "A549", "value": "> 100 µM (inactive)"},
      {"measurement": "GI50", "setting": "ACHN", "value": "> 100 µM (inactive)"},
      {"measurement": "GI50", "setting": "CAKI-1", "value": "> 100 µM (inactive)"},
      {"measurement": "GI50", "setting": "CCRF-CEM", "value": "> 100 µM (inactive)"},
      {"measurement": "GI50", "setting": "COLO 205", "value": "> 100 µM (inactive)"},
      {"measurement": "GI50", "setting": "DLD-1", "value": "> 100 µM (inactive)"},
      {"measurement": "GI50", "setting": "EKVX", "value": "> 100 µM (inactive)"},
      {"measurement": "GI50", "setting": "HCC 2998", "value": "> 100 µM (inactive)"},
      {"measurement": "GI50", "setting": "HCT-116", "value": "> 100 µM (inactive)"},
      {"measurement": "GI50", "setting": "HCT-15", "value": "> 100", "unit": "µM"},
      {"measurement": "GI50", "setting": "HL-60", "value": "> 100 µM (inactive)"},
      {"measurement": "GI50", "setting": "HOP-18", "value": "> 100 µM (inactive)"},
      {"measurement": "GI50", "setting": "HOP-62", "value": "> 100 µM (inactive)"},
      {"measurement": "GI50", "setting": "HT-29", "value": "> 100 µM (inactive)"},
      {"measurement": "GI50", "setting": "IGROV-1", "value": "> 100 µM (inactive)"},
      {"measurement": "GI50", "setting": "K562", "value": "> 100 µM (inactive)"},
      {"measurement": "GI50", "setting": "KM-20L2", "value": "> 100 µM (inactive)"},
      {"measurement": "GI50", "setting": "KM12", "value": "> 100 µM (inactive)"},
      {"measurement": "GI50", "setting": "LOX IMVI", "value": "> 100 µM (inactive)"},
      {"measurement": "GI50", "setting": "LXFL 529", "value": "> 100 µM (inactive)"},
      {"measurement": "GI50", "setting": "M14", "value": "> 100 µM (inactive)"},
      {"measurement": "GI50", "setting": "M19-MEL", "value": "> 100 µM (inactive)"},
      {"measurement": "GI50", "setting": "MOLT-4", "value": "> 100 µM (inactive)"},
      {"measurement": "GI50", "setting": "Malme-3M", "value": "> 100 µM (inactive)"},
      {"measurement": "GI50", "setting": "NCI-H226", "value": "> 100 µM (inactive)"},
      {"measurement": "GI50", "setting": "NCI-H23", "value": "> 100 µM (inactive)"},
      {"measurement": "GI50", "setting": "NCI-H460", "value": "> 100 µM (inactive)"},
      {"measurement": "GI50", "setting": "NCI-H522", "value": "> 100 µM (inactive)"},
      {"measurement": "GI50", "setting": "OVCAR-3", "value": "> 100 µM (inactive)"},
      {"measurement": "GI50", "setting": "OVCAR-4", "value": "> 100 µM (inactive)"},
      {"measurement": "GI50", "setting": "OVCAR-5", "value": "> 100 µM (inactive)"},
      {"measurement": "GI50", "setting": "OVCAR-8", "value": "> 100 µM (inactive)"},
      {"measurement": "GI50", "setting": "RPMI-8226", "value": "> 100 µM (inactive)"},
      {"measurement": "GI50", "setting": "RXF 393", "value": "> 100 µM (inactive)"},
      {"measurement": "GI50", "setting": "SF-268", "value": "> 100 µM (inactive)"},
      {"measurement": "GI50", "setting": "SF-295", "value": "> 100 µM (inactive)"},
      {"measurement": "GI50", "setting": "SF-539", "value": "10 µM (inactive)"},
      {"measurement": "GI50", "setting": "SK-MEL-28", "value": "> 100 µM (inactive)"},
      {"measurement": "GI50", "setting": "SK-MEL-2", "value": "> 100 µM (inactive)"},
      {"measurement": "GI50", "setting": "SK-MEL-5", "value": "> 100 µM (inactive)"},
      {"measurement": "GI50", "setting": "SN12C", "value": "> 100 µM (inactive)"},
      {"measurement": "GI50", "setting": "SNB-19", "value": "> 100 µM (inactive)"},
      {"measurement": "GI50", "setting": "SNB-78", "value": "> 100 µM (inactive)"},
      {"measurement": "GI50", "setting": "SR", "value": "> 100 µM (inactive)"},
      {"measurement": "GI50", "setting": "SW-620", "value": "> 100 µM (inactive)"},
      {"measurement": "GI50", "setting": "U-251", "value": "> 100 µM (inactive)"},
      {"measurement": "GI50", "setting": "UACC-257", "value": "> 100 µM (inactive)"},
      {"measurement": "GI50", "setting": "UACC-62", "value": "> 100 µM (inactive)"},
      {"measurement": "GI50", "setting": "UO-31", "value": "> 100 µM (inactive)"},
      {"measurement": "GI50", "setting": "XF498", "value": "> 100 µM (inactive)"}
    ]}
  ]
}
